The values that follow come from US7763772B2, “Activation of the arabidopsis hypertall (HYT1/YUCCA6) locus affects several auxin mediated responses” (Purdue Research Foundation, priority 2006, dated 2010).

One series deals with YUCCA6 gene expression. The series is described as follows: YUCCA6 gene expression after hormone treatment (RT-PCR). The class given is in vivo, Arabidopsis thaliana. The settings on record: RNA from 2-week old seedlings including roots. The procedure: (§1) YUCCA gene expression was checked by RT-PCR. RNA was prepared from 2-week old seedlings including roots. […] UBC was used as a loading control.
(§2) Arabidopsis YUCCA6 is one of 11 yucca family members. YUCCA6 belongs to the same sub-family with YUCCA2. We determined if YUCCA6 gene expression is regulated by ABA.

Series [1] relates to Arabidopsis thaliana plants (wild-type, yucca6-1D, yucca6-2D). As to the kind of experiment: Resistance to the toxic Trp analog 5-methyl-Trp in MS medium. The class given is in vivo. The note with it: MS medium containing 80 NM 5-methyl-Trp. The text has this:
It has been proposed that plants use […] and Trp-independent routes to synthesize auxin (Normanly et al., 1993; Müller and Weiler, 2000; Woodward and Bartel, 2005). To investigate in which pathway YUCCA6 may participate, we tested the resistance of yucca6-1D and yucca6-2D to the toxic Trp analog, 5-methyl-Trp.

Another series relates to YUCCA2 gene expression. As to the kind of experiment: YUCCA2 gene expression after ABA treatment (RT-PCR). The note with it: RNA from 2-week old seedlings including roots. Type of series: in vivo, Arabidopsis thaliana. As for the experimental part:
as §1, §2

Another series has as its system YUCCA 1 gene expression. The series is described as follows: YUCCA1 gene expression after ABA treatment (RT-PCR). The class given is in vivo, Arabidopsis thaliana. The note with it: RNA from 2-week old seedlings including roots. As for the experimental part: as §1, §2
Series [2] addresses T1, MBP:YUCCA6 fusion protein (Arabidopsis thaliana, UniProt Q8VZ59).
T1 construct: The full-length YUCCA6 ORF was synthesized from Col-0 cDNA by PCR amplification and subcloned into the expression vector pMAL-c2; made in house; host or cells: Escherichia coli BL21
T1 sequence (Q8VZ59 1-417): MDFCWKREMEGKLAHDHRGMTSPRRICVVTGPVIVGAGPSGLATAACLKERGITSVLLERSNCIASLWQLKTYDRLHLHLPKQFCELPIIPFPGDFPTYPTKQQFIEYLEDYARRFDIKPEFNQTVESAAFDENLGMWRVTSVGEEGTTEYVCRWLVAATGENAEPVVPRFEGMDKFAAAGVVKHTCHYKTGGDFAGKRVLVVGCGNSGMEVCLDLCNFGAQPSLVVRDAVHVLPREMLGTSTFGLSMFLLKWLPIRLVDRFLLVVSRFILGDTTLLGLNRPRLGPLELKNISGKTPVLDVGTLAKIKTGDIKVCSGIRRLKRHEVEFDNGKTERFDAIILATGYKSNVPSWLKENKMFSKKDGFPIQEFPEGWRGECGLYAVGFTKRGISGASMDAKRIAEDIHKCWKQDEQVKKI
The series is described as follows: Recombinant YUCCA6 enzyme activity (substrate-dependent NADPH oxidation). The class given is biochemical. The note with it: tryptamine as a substrate; 0.1 mM NADPH, pH 8.0, 22° C. The text has this:
(§3) It has been reported that maltose-binding protein (MBP):YUCCA1 fusion proteins have catalytic activity to convert tryptamine to N-hydroxyl tryptamine (Zhao et al., 2001). To investigate if YUCCA6 also is involved in oxidation of tryptamine, we tested YUCCA6 activity with MBP:YUCCA6 fusion protein expressed in and purified from bacteria. It is known that FMOs oxidize NADPH by transfer of electrons to oxygen. […] The catalytic activity of YUCCA6 for oxidation of tryptamine, together with resistance of yucca6 mutants to 5-methyl-Trp, strongly implies that YUCCA6 has an important function in Trp-dependent auxin biosynthesis.
(§4) The full-length YUCCA6 ORF was synthesized from Col-0 cDNA by PCR amplification and subcloned into the expression vector pMAL-c2. […] The protein contents were measured using BIO-RAD Protein Assay (no. 500-0006), and protein was separated by SDS-PAGE.
(§5) The activities of MBP:YUCCA6 and MBP proteins were measured by determining the rates of substrate-dependent NADPH oxidation consumption. […] The rates of NADPH oxidation caused by addition of tryptamine were monitored at 340 nm for 5 minutes at 22° C. using a UV-visible spectrophotometer (model UV-1601; Shimazu). The change in absorbance per minute was converted to micromoles NADPH consumed per minute using the extinction coefficient 6,220 M^−1 cm^−1 for NADPH. […]

Substrate in series [3]: NCCc1c[nH]c2ccccc12
The description is as above. The note with it: other: tryptamine as a substrate, 0.1 mM NADPH, pH 8.0, 22° C. The class given is biochemical, Arabidopsis thaliana.
From the text: as §3, §4, §5

On to `NC1(C(=O)O)CC1` [ACC, 1-aminocylopropane-1-carboxylic acid], for which the “regulation of YUCCA6 transcript level” value in the series on YUCCA6 gene expression was “could not regulate”.

On to `Cc1ccc2[nH]cc(C[C@H](N)C(=O)O)c2c1` [5-methyl-Trp], for which, in series [1] (wild-type plants), the “survival and growth of wild-type plants” value is recorded as “could not”. The “survival and growth of yucca6-1D plants” value in series [1] (yucca6-1D) was “could survive and grow”. For the same molecule, the “survival and growth of yucca6-2D plants” value in series [1] (yucca6-2D) is “could survive and grow”.

Take `CC1=CC(=O)CC(C)(C)[C@@]1(O)/C=C/C(C)=C\C(=O)O` [ABA, Abscisic Acid]: in the series with YUCCA2 gene expression, the “regulation of YUCCA2 gene expression” value is on record as “down-regulated”. In the series with YUCCA 1 gene expression, the “regulation of YUCCA 1 gene expression” value was “does not change”. Also, in the series on YUCCA6 gene expression, the “regulation of YUCCA6 transcript level” value is “down-regulated”.

As to `NCCc1c[nH]c2ccccc12` [tryptamine], the Vmax in series [2] was found to be 9.46 Nmol NADPH min^−1 mg^−1.

B1: MBP:YUCCA6 fusion protein (Arabidopsis thaliana) (protein)
chain: T1 sequence (Q8VZ59 1-417)
notes: The full-length YUCCA6 ORF was synthesized from Col-0 cDNA by PCR amplification and subcloned into the expression vector pMAL-c2; made in house; host or cells: Escherichia coli BL21
On to B1, for which the Km – broadly, the concentration of substrate that gives half-maximal velocity – in series [3] worked out at 274 µM.
